# Where “and” joins values, the source holds several entries; their conditions need not be identical. Equal values may be shown once.
# Tested on: SERT
# Test: Baboon PET imaging: brain uptake, kinetic analysis and SERT parameters
# Assay type: in vivo
# Method: PET imaging protocol: PET experiments (n=20) were performed at Columbia University. Two adult male baboons (baboon A and B) were studied twice with each of the 5 radioligands (4 experiments per radioligand). All experiments took place within a 9-month period. Baboons A and B were 31 kg and 21 kg in weight at the beginning of the experimental period and 28 and 22 kg at the end, respectively. Test and retest experiments with the same radioligand were obtained on different days, with an average interval of 117±53 days.
# Experiments were performed according to protocols approved by the Columbia-Presbyterian Medical Center Institutional Animal Care and Use Committee. Fasted animals were immobilized with ketamine (10 mg/kg i.m.), and anesthetized with 1.8% isoflurane via an endotracheal tube. Vital signs were monitored every 10 minutes and the temperature was kept constant at 37° C. with heated water blankets. An i.v. perfusion line was used for hydration and injection of radioligands and nonradioactive drugs. A catheter was inserted in a femoral artery for arterial blood sampling. Head was positioned at the center of the field of view as defined by imbedded laser lines. PET imaging was performed with the ECAT EXACT HR+PET scanner (Siemens/CTI, Knoxville, Tenn.). In 3D mode, this camera provides an in-plane resolution of 4.3 mm, 4.5 mm, 5.4 mm and 8.0 mm full width at half maximum (FWHM) at a distance of 0, 1, 10 and 20 cm from the center of the field of view, respectively (Brix et al., 1997). A 15 minute transmission scan was obtained prior to radioligand injection for attenuation correction. Activity was injected i.v. over 30 seconds. […] Emission data was collected in the 3D mode for 91 minutes as 21 successive frames of increasing duration (6*10 seconds, 2*1 minutes, 4*2 minutes, 2*5 minutes, and 7*10 minutes).
# Image analysis: A Magnetic Resonance Image (MRI) of each baboon's brain was obtained for the purpose of identifying the regions of interest (ROI) (T1-weighted axial MRI sequence, acquired parallel to the anterior-posterior commissure, TR 34 msec, TE 5 msec, flip angle of 45 degrees, slice thickness is 1.5 mm, zero gap, matrix 1.5 mm×1 mm×1 mm voxels). The following regions were drawn on the MR images: cerebellum, midbrain, thalamus, striatum, hippocampus, temporal cortex, cingulate cortex and occipital cortex.
# PET emission data were attenuation-corrected using the transmission scan, and frames were reconstructed using a Shepp filter (cutoff 0.5 cycles/projection rays). Reconstructed image files were then processed using the image analysis software MEDx (Sensor Systems, Inc., Sterling, Va.). An image was created by summing all the frames, and this summed image was used to define the registration parameters with the MR image, using between-modality automated image registration (AIR) algorithm (Woods et al., 1993). Registration parameters were then applied to the individual frames for registration to the MR data set. Regional boundaries were transferred to the individual registered PET frames, and time-activity curves were measured and decay-corrected. Right and left regions were averaged. For a given animal, the same regions were used for all radioligands.
# Brain uptake: Total brain uptake was expressed as percentage of the injected dose per gram of tissue (% ID g^−1) in a region encompassing the entire brain. Regional peak time was defined as the mid-time of the frame associated with the highest activity value. To estimate the degree of wash-out from the brain captured during the scan interval (91 minutes), the decrease in activity from the peak frame to the last frame was calculated and expressed in percentage of the peak activity.
# Kinetic analysis: Regional total distribution volumes (VT, mL g^−1) were derived with kinetic analysis of the regional time-activity curves, using the arterial plasma concentrations as input function. […]
# [1] = BP = VT ROI − VT CER, baboons, mean ± SD of four experiments
# [2] = Mean ± SD of four experiments in two baboons
# [3] = baboons, mean ± SD of four experiments
# [4] = last scan 90 minutes, baboons, mean ± SD of four experiments
# [5] = one-tissue compartment model, baboons, mean ± SD of four experiments
structure (smiles),measurement,setting,value
[11CH3]Sc1ccc([C@H]2CN3CCC[C@H]3c3ccccc32)cc1 [[^11C]McN 5652],Binding potential Cingulate Cortex,[1],5.4 ± 0.8 mL/g
same,Binding potential Hippocampus,[1],9.5 ± 2.3 mL/g
same,Binding potential Midbrain,[1],25.9 ± 6.1 mL/g
same,Binding potential Occipital Cortex,[1],2.9 ± 1.6 mL/g
same,Binding potential Striatum,[1],17.6 ± 4.0 mL/g
same,Binding potential Temporal Cortex,[1],6.2 ± 1.8 mL/g
same,Binding potential Thalamus,[1],28.8 ± 6.9 mL/g
same,Equilibrium specific to non-specific partition coefficient (V3″) Cingulate Cortex,"Baboon A, single experiment",0.21 and 0.17
same,Equilibrium specific to non-specific partition coefficient (V3″) Hippocampus,"Baboon A, single experiment",0.41 and 0.29
same,Equilibrium specific to non-specific partition coefficient (V3″) Midbrain,"Baboon A, single experiment",1.16 and 0.78
same,Equilibrium specific to non-specific partition coefficient (V3″) Occipital Cortex,"Baboon A, single experiment",0.13 and 0.18
same,Equilibrium specific to non-specific partition coefficient (V3″) Striatum,"Baboon A, single experiment",0.81 and 0.49
same,Equilibrium specific to non-specific partition coefficient (V3″) Temporal Cortex,"Baboon A, single experiment",0.34 and 0.23
same,Equilibrium specific to non-specific partition coefficient (V3″) Thalamus,"Baboon A, single experiment",1.17 and 0.82
same,Equilibrium specific to non-specific partition coefficient (V3″) Cingulate Cortex,"Baboon B, single experiment",0.20
same,Equilibrium specific to non-specific partition coefficient (V3″) Hippocampus,"Baboon B, single experiment",0.38 and 0.30
same,Equilibrium specific to non-specific partition coefficient (V3″) Midbrain,"Baboon B, single experiment",1.00 and 0.80
same,Equilibrium specific to non-specific partition coefficient (V3″) Occipital Cortex,"Baboon B, single experiment",0.05 and 0.07
same,Equilibrium specific to non-specific partition coefficient (V3″) Striatum,"Baboon B, single experiment",0.66 and 0.60
same,Equilibrium specific to non-specific partition coefficient (V3″) Temporal Cortex,"Baboon B, single experiment",0.18 and 0.16
same,Equilibrium specific to non-specific partition coefficient (V3″) Thalamus,"Baboon B, single experiment",1.15 and 1.00
same,Equilibrium specific to non-specific partition coefficient (V3″) Cingulate Cortex,[2],0.19 and 0.19 ± 0.02
same,Equilibrium specific to non-specific partition coefficient (V3″) Hippocampus,[2],0.34 and 0.34 ± 0.06
same,Equilibrium specific to non-specific partition coefficient (V3″) Midbrain,[2],0.94 and 0.94 ± 0.18
same,Equilibrium specific to non-specific partition coefficient (V3″) Occipital Cortex,[2],0.11 and 0.11 ± 0.06
same,Equilibrium specific to non-specific partition coefficient (V3″) Striatum,[2],0.64 and 0.64 ± 0.13
same,Equilibrium specific to non-specific partition coefficient (V3″) Temporal Cortex,[2],0.23 and 0.23 ± 0.08
same,Equilibrium specific to non-specific partition coefficient (V3″) Thalamus,[2],1.04 and 1.04 ± 0.16
same,"K1, average of all regions and all animals",baboons,0.93 ± 0.18 mL/g/min
same,"VT, average of all regions and all animals",baboons,39.7 ± 11.8 mL/g
same,"k2, average of all regions and all animals",baboons,0.025 ± 0.008 min⁻¹
same,Mean regional peak uptake time,"baboons, mean of all regions",28 ± 12 min
same,Mean regional wash-out (% decrease between peak time and last scan),"baboons, mean of all regions",24±13%
same,Regional uptake peak time Cerebellum,[3],15 ± 3 min
same,Regional uptake peak time Cingulate Cortex,[3],17 ± 3 min
same,Regional uptake peak time Hippocampus,[3],36 ± 8 min
same,Regional uptake peak time Midbrain,[3],39 ± 13 min
same,Regional uptake peak time Occipital Cortex,[3],17 ± 3 min
same,Regional uptake peak time Striatum,[3],34 ± 10 min
same,Regional uptake peak time Temporal Cortex,[3],27 ± 7 min
same,Regional uptake peak time Thalamus,[3],41 ± 6 min
same,Total brain uptake at 45 min,"baboons, region encompassing the entire brain",0.016±0.002 % ID g^−1
same,"Regional activity wash-out: % decrease from peak to last scan, Cerebellum",[4],44 ± 6%
same,"Regional activity wash-out: % decrease from peak to last scan, Cingulate Cortex",[4],34 ± 3%
same,"Regional activity wash-out: % decrease from peak to last scan, Hippocampus",[4],16 ± 3%
same,"Regional activity wash-out: % decrease from peak to last scan, Midbrain",[4],8 ± 5%
same,"Regional activity wash-out: % decrease from peak to last scan, Occipital Cortex",[4],34 ± 3%
same,"Regional activity wash-out: % decrease from peak to last scan, Striatum",[4],18 ± 7%
same,"Regional activity wash-out: % decrease from peak to last scan, Temporal Cortex",[4],24 ± 6%
same,"Regional activity wash-out: % decrease from peak to last scan, Thalamus",[4],12 ± 4%
same,K1 Cerebellum,[5],1.05 ± 0.20 mL/g/min
same,K1 Cingulate Cortex,[5],1.01 ± 0.24 mL/g/min
same,K1 Hippocampus,[5],0.74 ± 0.12 mL/g/min
same,K1 Midbrain,[5],0.92 ± 0.12 mL/g/min
same,K1 Occipital Cortex,[5],0.95 ± 0.18 mL/g/min
same,K1 Striatum,[5],0.95 ± 0.12 mL/g/min
same,K1 Temporal Cortex,[5],0.83 ± 0.19 mL/g/min
same,K1 Thalamus,[5],1.03 ± 0.15 mL/g/min
same,K2 Cerebellum,[5],0.038 ± 0.007 min⁻¹
same,K2 Cingulate Cortex,[5],0.031 ± 0.007 min⁻¹
same,K2 Hippocampus,[5],0.020 ± 0.003 min⁻¹
same,K2 Midbrain,[5],0.017 ± 0.003 min⁻¹
same,K2 Occipital Cortex,[5],0.031 ± 0.006 min⁻¹
same,K2 Striatum,[5],0.021 ± 0.003 min⁻¹
same,K2 Temporal Cortex,[5],0.025 ± 0.006 min⁻¹
same,K2 Thalamus,[5],0.019 ± 0.003 min⁻¹
same,"VT Cerebellum (VT CER, nonspecific distribution volume)",[5],27.7 ± 4.0 mL/g
same,VT Cingulate Cortex,[5],33.1 ± 4.7 mL/g
same,VT Hippocampus,[5],37.2 ± 5.9 mL/g
same,VT Midbrain,[5],53.6 ± 9.3 mL/g
same,VT Occipital Cortex,[5],30.6 ± 3.9 mL/g
same,VT Striatum,[5],45.3 ± 7.0 mL/g
same,VT Temporal Cortex,[5],33.9 ± 4.2 mL/g
same,VT Thalamus,[5],56.5 ± 10.3 mL/g

# — US20110097274A1, “Carbon-11 and fluorine-18 labeled radioligands for positron emission tomography (PET) imaging for the brain serotonin transporters” (priority 2002, published 2011)
